Results on two molecules are retold here after patent US20260355094A1, “COMBINATION OF AN ORGANOSILICON COMPOUND WITH A CROSSLINKED GLYCOSAMINOGLUCAN FOR PREVENTING AND REPAIRING CUTANEOUS AGEING” (LABORATOIRES FILL-MED MANUFACTURING, priority 2022, published 2026).

The subject of experiment [1] is hyaluronan synthase type 2 (HAS2). Conditions: in combination with resveratrol; human skin fibroblasts; cited from earlier work.
The test system of a further experiment is elastin. To be noted: in combination with resveratrol; human skin fibroblasts; cited from earlier work.
Another experiment has as its system collagen type I. To be noted: in combination with resveratrol; human skin fibroblasts; cited from earlier work.
The subject of another experiment is fibroblasts. Nature of the experiment: Contractile force of fibroblasts in equivalent dermis (Glassbox system). The experiment is classed as cell-based. Conditions: 2.5 ng/ml, positive contraction control. How it is done: AFU+Si was tested to evaluate the effect on contractile force of fibroblasts in a Glassbox system, when compared to Si and AFU.
An equivalent dermis was developed in a culture box consisting of eight rectangular tanks. In each tank, two flexible blades were plunged, the lower parts of which were made up of grids on which the equivalent dermis clang during its polymerization. The equivalent dermis developed between the two blades to result in a rectangular shape slightly narrowed in the center.
Under the influence of the contraction forces developed by fibroblasts, the blades were deformed. Their deformation was measured in real time using optical fibers and adapted software. The deformation was proportional to the force developed within the equivalent dermis.
Prior to the test for contractile force, different concentrations of products diluted in cellular culture medium were tested for cellular viability. Among these, the following concentrations were chosen for the contractile force test: 0.005%, 0.05%, 0.0005% and 0.0025%.

Consider `C[SiH2]O.O=C[C@@H](O)[C@@H](O)[C@H](O)[C@H](O)C(=O)O` [methylsilanol mannuronate], for which, in experiment [1], the “expression of hyaluronan synthase type 2 (HAS2) gene” value was “promoting the expression”. Moreover, the “expression of elastin gene” value with elastin was “promoting the expression”. Moreover, the “expression of collagen type I gene” value in the experiment on collagen type I is “promoting the expression”.

As for “TGFβ1: used as a positive contraction control”, in the experiment with fibroblasts, the contractile forces entry is “significant increase in contractile forces”.
